Experimental data: US20220281848A1, “PYRAZOLE-SUBSTITUTED PYRROLIDINONES AS HERBICIDES” (FMC Corporation, priority 2019, published 2022)

Test system: plants
Experiment: Test D pre-emergence, other plants of Tables D1 and D3
Format: in vivo
Conditions: for damage to plant (100=total damage to plant; 0=no damage to plant), SORVU: preemergent, 20 DAA; for damage to plant, ALOMY / damage to plant, AVEFA / damage to plant, BEAVA / damage to plant, BROTE / damage to plant, BRSNN / damage to plant, CHEAL / damage to plant, GALAP / damage to plant, HORVW / damage to plant, KCHSC / damage to plant, LOLPE / damage to plant, POAAN / damage to plant, POLCO / damage to plant, SINAR / damage to plant, STEME / damage to plant, VERPE: pre-emergence, 100=total damage, 0=no damage
Protocol: A formulation containing 50 g/L of the test chemical was prepared by dissolving the active ingredient in a mixture of organic solvents and emulsifier, details of which are provided in the table. This formulation was then mixed with a small, variable amount of acetone to aid dissolution, before addition of a 0.2% v/v aqueous solution of an adjuvant, as the aqueous diluent, to form an aqueous spray solution which contains a predetermined concentration of the active ingredient.
This aqueous spray solution was then sprayed onto plants including maize and wheat that had been seed treated with a herbicide safener, after one day's cultivation (for pre-emergence) or after about 12 days' cultivation (for post-emergence). The plants were grown from seeds sown in standard soil, placed in a glasshouse under controlled conditions (at 24/18° C. or 20/16° C., day/night; 16 h light; 65% humidity). After spray application the plants were then grown in a glasshouse under the same conditions and watered twice daily. After 15 d for post-emergence and 20 DAA for pre-emergence the test was evaluated (100=total damage to plant; 0=no damage to plant).

## CCn1nc([C@@H]2CN(C)C(=O)[C@H]2C(=O)Nc2cccc(F)c2F)c2cccc(F)c21 [Compound 14]
Rate 130
  damage to plant (100=total damage to plant; 0=no damage to plant), SORVU: 0
Rate 250
  damage to plant (100=total damage to plant; 0=no damage to plant), SORVU: 0
Rate 500
  damage to plant (100=total damage to plant; 0=no damage to plant), SORVU: 30
Rate 15, 20 DAA
  damage to plant, ALOMY: 0
  damage to plant, AVEFA: 0
  damage to plant, BEAVA: 0
  damage to plant, BROTE: 0
  damage to plant, BRSNN: 0
  damage to plant, CHEAL: 0
  damage to plant, GALAP: 0
  damage to plant, HORVW: 0
  damage to plant, KCHSC: 0
  damage to plant, LOLPE: 0
  damage to plant, POAAN: 0
  damage to plant, POLCO: 0
  damage to plant, SINAR: 0
  damage to plant, STEME: 0
  damage to plant, VERPE: 0
Rate 30, 20 DAA
  damage to plant, ALOMY: 0
  damage to plant, AVEFA: 0
  damage to plant, BEAVA: 0
  damage to plant, BROTE: 0
  damage to plant, BRSNN: 0
  damage to plant, CHEAL: 0
  damage to plant, GALAP: 0
  damage to plant, HORVW: 0
  damage to plant, KCHSC: 0
  damage to plant, LOLPE: 0
  damage to plant, POAAN: 0
  damage to plant, POLCO: 0
  damage to plant, SINAR: 0
  damage to plant, STEME: 0
  damage to plant, VERPE: 0
Rate 60, 20 DAA
  damage to plant, ALOMY: 0
  damage to plant, AVEFA: 0
  damage to plant, BEAVA: 0
  damage to plant, BROTE: 0
  damage to plant, BRSNN: 0
  damage to plant, CHEAL: 0
  damage to plant, GALAP: 0
  damage to plant, HORVW: 0
  damage to plant, KCHSC: 0
  damage to plant, LOLPE: 30
  damage to plant, POAAN: 0
  damage to plant, POLCO: 10
  damage to plant, SINAR: 0
  damage to plant, STEME: 0
  damage to plant, VERPE: 0
Rate 130, 20 DAA
  damage to plant, ALOMY: 0
  damage to plant, AVEFA: 10
  damage to plant, BEAVA: 0
  damage to plant, BROTE: 0
  damage to plant, BRSNN: 0
  damage to plant, CHEAL: 0
  damage to plant, GALAP: 0
  damage to plant, HORVW: 10
  damage to plant, KCHSC: 0
  damage to plant, LOLPE: 40
  damage to plant, POAAN: 20
  damage to plant, POLCO: 20
  damage to plant, SINAR: 0
  damage to plant, STEME: 0
  damage to plant, VERPE: 0
Rate 250, 20 DAA
  damage to plant, ALOMY: 10
  damage to plant, AVEFA: 30
  damage to plant, BEAVA: 0
  damage to plant, BROTE: 10
  damage to plant, BRSNN: 0
  damage to plant, CHEAL: 0
  damage to plant, GALAP: 0
  damage to plant, HORVW: 60
  damage to plant, KCHSC: 0
  damage to plant, LOLPE: 50
  damage to plant, POAAN: 80
  damage to plant, POLCO: 50
  damage to plant, SINAR: 0
  damage to plant, STEME: 10
  damage to plant, VERPE: 0
Rate 500, 20 DAA
  damage to plant, ALOMY: 70
  damage to plant, AVEFA: 60
  damage to plant, BEAVA: 10
  damage to plant, BROTE: 50
  damage to plant, BRSNN: 10
  damage to plant, CHEAL: 50
  damage to plant, GALAP: 0
  damage to plant, HORVW: 90
  damage to plant, KCHSC: 0
  damage to plant, LOLPE: 80
  damage to plant, POAAN: 80
  damage to plant, POLCO: 80
  damage to plant, SINAR: 0
  damage to plant, STEME: 60
  damage to plant, VERPE: 20
